IC50 data for one molecule are collected here from EP4752149A1, “OXYGEN-CONTAINING FUSED TRICYCLIC DERIVATIVE, AND PREPARATION METHOD THEREFOR AND USE THEREOF” (Tuojie Biotech (Shanghai) Co., Ltd., priority 2023, dated 2025).

Assay type in all cases: cell-based
Assay [1] concerns Human non-small cell lung cancer cells (A549). Put plainly: Inhibitory activity against human non-small cell lung cancer cells (A549), CTG cell viability. The following applies: Homo sapiens, 120 h, 5 days with compound. The method, then: (§1) Human non-small cell lung cancer cells (A549) were cultured using an F12K culture medium containing 10% FBS in a cell incubator (37 °C, 5% CO2). On day one, the cells were plated in a 384-well plate at a cell concentration of 300 cells/well and cultured overnight in an incubator. On day two, the cells were treated with compounds. The highest compound concentration was 10 µM and was diluted 3-fold to obtain 9 concentrations, and the final concentration of DMSO was 0.2%. After the cells were cultured in the incubator for another 5 days, the cell viability was tested using a CTG Cell Viability Detection Reagent; the testing method was consistent with the method provided by the kit. Data were processed using XLFit, and IC50 was calculated. [formula] X: the logarithm of the compound concentration; Y: % inhibition. Table 10. The IC50 (nM) of a compound of the present disclosure against A549

The subject of assay [2] is Ovarian cancer cells (OVCAR3). Put plainly: Inhibitory activity against ovarian cancer cells (OVCAR3), CTG cell viability. As to conditions: Homo sapiens, OVCAR-3, 168 h, 7 days with compound. The method, then:
Ovarian cancer cells (OVCAR3) were cultured using an RPMI 1640 culture medium containing 10% FBS in a cell incubator (37 °C, 5% CO2). On day one, the cells were plated in a 384-well plate at a cell concentration of 800 cells/well and cultured overnight in an incubator. On day two, the cells were treated with compounds. The highest compound concentration was 10 µM and was diluted 3-fold to obtain 9 concentrations, and the final concentration of DMSO was 0.1%. After the cells were cultured in the incubator for another 7 days, the cell viability was tested using a CTG Cell Viability Detection Reagent (MCE); the testing method was consistent with the method provided by the kit. Data were processed using GraphPad Prism 8, and IC50 was calculated. [formula] X: the logarithm of the compound concentration; Y: inhibition%. Table 2. The IC50 (nM) of compounds of the present disclosure against OVCAR3

Assay [3] concerns Triple-negative breast cancer cells (HCC1806). Description: Inhibitory activity against triple-negative breast cancer cells (HCC1806), CTG cell viability. As to conditions: Homo sapiens, 168 h, 7 days with compound. The protocol: Triple-negative breast cancer cells (HCC1806, Nanjing Cobioer Biosciences Co., Ltd.) were cultured using an RPMI 1640 culture medium containing 10% FBS in a cell incubator (37 °C, 5% CO2). On day one, the cells were plated in a 384-well plate at a cell concentration of 200 cells/well and cultured overnight in an incubator. On day two, the cells were treated with compounds. The highest compound concentration was 10 µM and was diluted 3-fold to obtain 9 concentrations, and the final concentration of DMSO was 0.2%. After the cells were cultured in the incubator for another 7 days, the cell viability was tested using a CTG Cell Viability Detection Reagent (MCE); the testing method was consistent with the method provided by the kit. Data were processed using XLfit, and IC50 was calculated. [formula] X: the logarithm of the compound concentration; Y: inhibition%. Table 4. The IC50 (nM) of compounds of the present disclosure against HCC1806

A further assay relates to MCF-7/Palbo-R. Put plainly: Inhibitory activity against CDK4/6 inhibitor-resistant human breast cancer cells (MCF-7 palbociclib-resistant cell line), cell viability. The following applies: Homo sapiens, MCF7, 120 h, 5 days with compound, CellTiter-Glo cell viability. The method, then: MCF-7/Palbo-R cell source: MCF7 cells (Nanjing Cobioer Biosciences Co., Ltd.) were treated with 1 µM palbociclib for a long time, and drug resistance was induced.
The palbociclib-resistant breast cancer cell line MCF-7/Palbo-R was cultured using a DMEM culture medium containing 10% FBS in a cell incubator (37 °C, 5% CO2). On day one, the cells were plated in a 384-well plate at a cell concentration of 800 cells/well and cultured overnight in an incubator. On day two, the cells were treated with compounds. The highest compound concentration was 10 µM and was diluted 3-fold to obtain 9 concentrations, and the final concentration of DMSO was 0.2%. After the cells were cultured in the incubator for another 5 days, the cell viability was tested using a CellTiter-Glo luminescent cell viability assay kit; the testing method was consistent with the method provided by the kit. Data were processed using XLfit, and IC50 was calculated.
The inhibition rates (IR) of the test compounds were calculated using the following formula: IR (%) = (1 - (RLU compound - RLU blank control) / (RLU vehicle control-RLU blank control)) × 100%. Table 16. The IC50 (nM) of a compound of the present disclosure against MCF-7/Palbo-R
(In general: In ATP-based viability assays light output follows the ATP content of the culture.)

The test system of assay [4] is Human breast cancer cells (SUM-149PT). Description: Inhibitory activity against human breast cancer cells (SUM-149PT), CTG cell viability. As to conditions: Homo sapiens, SUM149PT, 120 h, 5 days with compound. The protocol:
as §1, with “breast” for “non-small cell lung”, “(SUM-149PT)” for “(A549)”, “a DMEM” for “an F12K”, “800” for “300”, “14.” for “10.”, “SUM-149PT” for “A549”

In assay [5] the test system is Human breast cancer cells (MDA-MB-231). Put plainly: Inhibitory activity against human breast cancer cells (MDA-MB-231), CTG cell viability. As to conditions: Homo sapiens, 168 h, 7 days with compound. The method, then: Human breast cancer cells (MDA-MB-231) were cultured using a DMEM culture medium containing 10% FBS in a cell incubator (37 °C, 5% CO2). On day one, the cells were plated in a 384-well plate at a cell concentration of 600 cells/well and cultured overnight in an incubator. On day two, the cells were treated with compounds. The highest compound concentration was 10 µM and was diluted 3-fold to obtain 9 concentrations, and the final concentration of DMSO was 0.2%. After the cells were cultured in the incubator for another 7 days, the cell viability was tested using a CTG Cell Viability Detection Reagent; the testing method was consistent with the method provided by the kit. Data were processed using XLFit, and IC50 was calculated. [formula] X: the logarithm of the compound concentration; Y: % inhibition. Table 8. The IC50 (nM) of a compound of the present disclosure against MDA-MB-231

The structures appear in SMILES notation.

By IC50 is commonly meant the concentration at which inhibition is half-maximal. Take `C[C@H]1COc2c(-c3nc(Nc4ccc(N5CCOCC5=O)cc4F)ncc3Cl)cc(F)c3nc(C(C)(C)O)n1c23` [Example 1, (S)-4-(4-((5-Chloro-4-(8-fluoro-2-(2-hydroxypropan-2-yl)-3-methyl-3,4-dihydro-5-oxa-1,2a-diazaacenaphthylen-6-yl)pyrimidin-2-yl)amino)-3-fluorophenyl)morpholin-3-one]: the concentration for half-maximal inhibition (IC50) in assay [1] turned out to be 236 nM; in assay [2], 672 nM; in assay [3], 150 nM; in the assay with MCF-7/Palbo-R, 180 nM; in assay [4] it was 256 nM; in assay [5] it was 117 nM.
